Test results: patent publication US20240116985A1, “STAPLED PEPTIDES AND METHODS THEREOF” (priority 2020, published 2024)

Assays:
[1] = target: T1, beta-catenin/TCF4 engagement (Homo sapiens, UniProt P35222); assay: Nano-BRET target engagement assay (B-cat-Halo & TCF4-Luc in HEK293 cells); format: cell-based; settings: absolute IC50; read-out: NanoBRET Abs IC50
T1 construct: expressed in transfected cells; host or cells: HEK293
T1 sequence (P35222 1-781): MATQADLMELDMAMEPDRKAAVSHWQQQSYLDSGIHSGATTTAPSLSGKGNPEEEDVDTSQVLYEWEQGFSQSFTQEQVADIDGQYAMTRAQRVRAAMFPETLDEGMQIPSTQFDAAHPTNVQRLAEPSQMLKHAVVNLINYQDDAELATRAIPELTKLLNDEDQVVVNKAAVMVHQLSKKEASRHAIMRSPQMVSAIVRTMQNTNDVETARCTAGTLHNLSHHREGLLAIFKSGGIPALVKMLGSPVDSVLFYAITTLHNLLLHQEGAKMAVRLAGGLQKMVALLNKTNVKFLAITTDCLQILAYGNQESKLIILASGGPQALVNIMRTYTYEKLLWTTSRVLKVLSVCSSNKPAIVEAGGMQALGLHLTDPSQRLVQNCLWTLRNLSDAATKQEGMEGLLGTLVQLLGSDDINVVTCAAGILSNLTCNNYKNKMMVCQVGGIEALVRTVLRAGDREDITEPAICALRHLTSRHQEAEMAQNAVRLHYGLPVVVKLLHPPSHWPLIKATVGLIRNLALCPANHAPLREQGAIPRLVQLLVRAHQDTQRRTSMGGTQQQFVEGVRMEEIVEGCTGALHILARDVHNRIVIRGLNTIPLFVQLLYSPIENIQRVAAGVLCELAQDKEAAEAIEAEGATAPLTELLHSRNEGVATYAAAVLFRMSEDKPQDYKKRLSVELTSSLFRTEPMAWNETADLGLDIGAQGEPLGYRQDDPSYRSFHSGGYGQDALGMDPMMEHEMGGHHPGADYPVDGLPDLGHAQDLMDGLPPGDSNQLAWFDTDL

[2] = test system: TCF/LEF luciferase Reporter in DLD1 cells; assay: TCF reporter assay (DLD1 TCF/LEF luciferase reporter, Bright-Glo); format: cell-based; settings: read-out: DLD1 4% Abs IC50; DLD1 reporter, 4%, absolute IC50
Outline: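 Readouts: Bright-Glo luciferase for reporter signal and CellTiter-Glo for cell viability, with absolute IC50 derived. The reporter clone came from lentiviral TCF/LEF-luciferase transduction of DLD1 cells, seeded 5000 cells/well in RPMI with 4% FBS and exposed overnight to serially diluted compounds.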

[3] = target: T2, full-length beta-Catenin (Uniprot ID P35222) (Homo sapiens, UniProt P35222); assay: Fluorescence polarization IC50 (beta-catenin / 5FAM-TCF4 10-53 competition); format: binding; settings: fluorescence polarization; read-out: beta-Catenin FP IC50
T2 construct: 10 nM full-length beta-Catenin (Uniprot ID P35222)
T2 sequence (P35222 1-781): T1 sequence (P35222 1-781)

Structure (SMILES) | IC50 [1] [nM] | IC50 [2] [nM] | IC50 [3] [nM]
CCCC[C@H](NC(=O)[C@H](CC(C)C)NC(=O)[C@H](CCC(N)=O)NC(=O)[C@H](Cc1csc2ccccc12)NC(=O)[C@H](Cc1ccccc1C(F)(F)F)NC(=O)[C@]12CCN(C1)C(=O)OCCCC=CCCCC1(CCCC=CC[C@]3(CCCN3C(C)=O)C(=O)N[C@@H](CC(=O)O)C(=O)N[C@@H](CC(C)(C)C)C(=O)N1)C(=O)N[C@@H](CC(=O)O)C(=O)N[C@@H](Cc1cccc(C(=O)O)c1)C(=O)N[C@@H](C)C(=O)N[C@@H](C)C(=O)N[C@@H](Cc1ccccc1)C(=O)N[C@@H](CC(C)C)C(=O)N2)C(N)=O (stereo partly drawn) [I-2391, Ac-PL3-Asp-Npg-B5-Asp-3COOHF-Ala-Ala-Phe-Leu-PyrS2-2F3MeF-BztA-Gln-Leu-nLeu-NH2] | 8200 | 700 | 110
CC(=O)N1CCC[C@]12CC=CCCCC1(CCCC=CCCCOC(=O)N3CC[C@@](C(=O)N[C@@H](Cc4ccccc4C(F)(F)F)C(=O)N[C@@H](Cc4csc5ccccc45)C(=O)N[C@@H](CCC(N)=O)C(=O)N[C@@H](CC(C)C)C(=O)N[C@@H](CCCNC(=N)N)C(N)=O)(C3)NC(=O)[C@H](CC(C)C)NC(=O)[C@H](Cc3ccccc3)NC(=O)[C@H](C)NC(=O)[C@H](C)NC(=O)[C@H](Cc3cccc(C(=O)O)c3)NC(=O)[C@H](CC(=O)O)NC1=O)NC(=O)[C@H](CC(C)(C)C)NC(=O)[C@H](CC(=O)O)NC2=O (stereo partly drawn) [I-2393, Ac-PL3-Asp-Npg-B5-Asp-3COOHF-Ala-Ala-Phe-Leu-PyrS2-2F3MeF-BztA-Gln-Leu-Arg-NH2] | > 20000 | 5600 | 61
CC(=O)N1CCC[C@]12CC=CCCCC1(CCCC=CCCCOC(=O)N3CC[C@@](C(=O)N[C@@H](Cc4ccccc4C(F)(F)F)C(=O)N[C@@H](Cc4csc5ccccc45)C(=O)N[C@@H](CCC(N)=O)C(=O)N[C@@H](CC(C)C)C(=O)N[C@H](C)C(N)=O)(C3)NC(=O)[C@H](CC(C)C)NC(=O)[C@H](Cc3ccccc3)NC(=O)[C@H](C)NC(=O)[C@H](C)NC(=O)[C@H](Cc3cccc(C(=O)O)c3)NC(=O)[C@H](CC(=O)O)NC1=O)NC(=O)[C@H](CC(C)(C)C)NC(=O)[C@H](CC(=O)O)NC2=O (stereo partly drawn) [I-2395, Ac-PL3-Asp-Npg-B5-Asp-3COOHF-Ala-Ala-Phe-Leu-PyrS2-2F3MeF-BztA-Gln-Leu-dAla-NH2] | 5500 | 1200 | 28
CC(=O)N1CCC[C@]12CC=CCCCC1(CCCC=CCCCOC(=O)N3CC[C@@](C(=O)N[C@@H](Cc4ccsc4)C(=O)N[C@@H](Cc4csc5ccccc45)C(=O)N[C@H](C(N)=O)[C@@H](C)O)(C3)NC(=O)[C@H](CC(N)=O)NC(=O)[C@H](Cc3ccccc3)NC(=O)[C@H](C)NC(=O)C(C)(C)NC(=O)[C@H]([C@@H](C)O)NC(=O)[C@H](CC(N)=O)NC1=O)NC(=O)[C@H](CC(C)(C)C)NC(=O)[C@H](CC(=O)O)NC2=O (stereo partly drawn) [I-2416, Ac-PL3-Asp-Npg-B5-Asn-Thr-Aib-Ala-Phe-Asn-PyrS2-3Thi-BztA-Thr-NH2] | > 20000 | > 20000 | 133
CC(=O)N1CCC[C@]12CC=CCCCC1(CCCC=CCCCOC(=O)N3CC[C@@](C(=O)N[C@@H](Cc4ccccc4)C(=O)N[C@@H](Cc4csc5ccccc45)C(=O)N[C@@H](CC(=O)N4CCOCC4)C(N)=O)(C3)NC(=O)[C@H](CC(C)C)NC(=O)[C@H](Cc3ccccc3)NC(=O)[C@H](C)NC(=O)[C@H](CCCCNC(C)C)NC(=O)[C@H](CCC(N)=O)NC(=O)[C@H](CC(=O)O)NC1=O)NC(=O)[C@H](CC1CCCCC1)NC(=O)[C@H](CC(N)=O)NC2=O (stereo partly drawn) [I-2426, Ac-PL3-Asn-Cha-B5-Asp-Gln-iPrLys-Ala-Phe-Leu-PyrS2-Phe-BztA-MorphAsn-NH2] | > 20000 | > 20000 | 46
CC(=O)N1CCC[C@]12CC=CCCCC1(CCCC=CCCCOC(=O)N3CC[C@@](C(=O)N[C@@H](Cc4ccsc4)C(=O)N[C@@H](Cc4csc5ccccc45)C(=O)N[C@@H](CCC(N)=O)C(N)=O)(C3)NC(=O)[C@H](CC(C)C)NC(=O)[C@H](Cc3ccccc3)NC(=O)[C@H](C)NC(=O)[C@H](C)NC(=O)[C@H](Cn3cc(C4(C(=O)O)CC4)nn3)NC(=O)[C@H](CC(=O)O)NC1=O)NC(=O)[C@H](CC(C)(C)C)NC(=O)[C@H](CC(=O)O)NC2=O (stereo partly drawn) [I-2445, Ac-PL3-Asp-Npg-B5-Asp-[CCpCO2H]TriAzDap-Ala-Ala-Phe-Leu-PyrS2-3Thi-BztA-Gln-NH2] | 17100 | 9500 | 5

These reach a lower IC50 [1]. Values come first.

IC50 [1] [nM] | IC50 [2] [nM] | IC50 [3] [nM] | Structure (SMILES)
3600 | 1300 | 28 | CC(=O)N1CCC[C@]12CC=CCCCC1(CCCC=CCCCOC(=O)N3CC[C@@](C(=O)N[C@@H](Cc4ccccc4C(F)(F)F)C(=O)N[C@@H](Cc4csc5ccccc45)C(=O)N[C@@H](CCC(N)=O)C(=O)N[C@@H](CC(C)C)C(=O)N[C@H](CCC(N)=O)C(N)=O)(C3)NC(=O)[C@H](CC(C)C)NC(=O)[C@H](Cc3ccccc3)NC(=O)[C@H](C)NC(=O)[C@H](C)NC(=O)[C@H](Cc3cccc(C(=O)O)c3)NC(=O)[C@H](CC(=O)O)NC1=O)NC(=O)[C@H](CC(C)(C)C)NC(=O)[C@H](CC(=O)O)NC2=O (stereo partly drawn) [I-2398, Ac-PL3-Asp-Npg-B5-Asp-3COOHF-Ala-Ala-Phe-Leu-PyrS2-2F3MeF-BztA-Gln-Leu-dGln-NH2]
2800 | 2200 | 17 | CC(=O)N1CCC[C@]12CC=CCCCC1(CCCC=CCCCOC(=O)N3CC[C@@](C(=O)N[C@@H](Cc4ccccc4C(F)(F)F)C(=O)N[C@@H](Cc4csc5ccccc45)C(=O)N[C@@H](CCC(N)=O)C(=O)N[C@@H](C)C(=O)N[C@@H](C)C(N)=O)(C3)NC(=O)[C@H](CC(C)C)NC(=O)[C@H](Cc3ccccc3)NC(=O)[C@H](C)NC(=O)[C@H](C)NC(=O)[C@H](Cc3cccc(C(=O)O)c3)NC(=O)[C@H](CC(=O)O)NC1=O)NC(=O)[C@H](CC(C)(C)C)NC(=O)[C@H](CC(=O)O)NC2=O (stereo partly drawn) [I-2399, Ac-PL3-Asp-Npg-B5-Asp-3COOHF-Ala-Ala-Phe-Leu-PyrS2-2F3MeF-BztA-Gln-Ala-Ala-NH2]
2500 | 800 | 142 | CC(=O)N1CCC[C@]12CC=CCCCC1(CCCC=CCCCOC(=O)N3CC[C@@](C(=O)N[C@@H](Cc4ccccc4C(F)(F)F)C(=O)N[C@@H](Cc4csc5ccccc45)C(=O)N[C@@H](CCC(N)=O)C(=O)N[C@@H](Cc4ccccc4)C(=O)N[C@@H](C)C(N)=O)(C3)NC(=O)[C@H](CC(C)C)NC(=O)[C@H](Cc3ccccc3)NC(=O)[C@H](C)NC(=O)[C@H](C)NC(=O)[C@H](Cc3cccc(C(=O)O)c3)NC(=O)[C@H](CC(=O)O)NC1=O)NC(=O)[C@H](CC(C)(C)C)NC(=O)[C@H](CC(=O)O)NC2=O (stereo partly drawn) [I-2400, Ac-PL3-Asp-Npg-B5-Asp-3COOHF-Ala-Ala-Phe-Leu-PyrS2-2F3MeF-BztA-Gln-Phe-Ala-NH2]
4400 | 800 | 37 | CC(=O)N1CCC[C@]12CC=CCCCC1(CCCC=CCCCOC(=O)N3CC[C@@](C(=O)N[C@@H](Cc4ccccc4C(F)(F)F)C(=O)N[C@@H](Cc4csc5ccccc45)C(=O)N[C@@H](CCC(N)=O)C(=O)N[C@H](C(=O)N[C@@H](C)C(N)=O)C(C)C)(C3)NC(=O)[C@H](CC(C)C)NC(=O)[C@H](Cc3ccccc3)NC(=O)[C@H](C)NC(=O)[C@H](C)NC(=O)[C@H](Cc3cccc(C(=O)O)c3)NC(=O)[C@H](CC(=O)O)NC1=O)NC(=O)[C@H](CC(C)(C)C)NC(=O)[C@H](CC(=O)O)NC2=O (stereo partly drawn) [I-2401, Ac-PL3-Asp-Npg-B5-Asp-3COOHF-Ala-Ala-Phe-Leu-PyrS2-2F3MeF-BztA-Gln-Val-Ala-NH2]
2500 | 1400 | 10 | CC(=O)N1CCC[C@]12CC=CCCCC1(CCCC=CCCCOC(=O)N3CC[C@@](C(=O)N[C@@H](Cc4ccsc4)C(=O)N[C@@H](Cc4csc5ccccc45)C(=O)N[C@@H](CCC(=O)N(C)C)C(=O)N[C@@H](C)C(N)=O)(C3)NC(=O)[C@H](CC(C)C)NC(=O)[C@H](Cc3ccccc3)NC(=O)[C@H](C)NC(=O)[C@H](C)NC(=O)[C@H](CN(CC(=O)O)CC(F)(F)F)NC(=O)[C@H](CC(=O)O)NC1=O)NC(=O)[C@H](CC(C)(C)C)NC(=O)[C@H](CC(=O)O)NC2=O (stereo partly drawn) [I-2467, Ac-PL3-Asp-Npg-B5-Asp-TfeGA-Ala-Ala-Phe-Leu-PyrS2-3Thi-BztA-Me2Gln-Ala-NH2]
